This is an account of results in ChEMBL document CHEMBL1201862, “PubChem BioAssay data set” (2004).

The source made the active and inactive calls. A value given as a limit tells only on which side of the number the result lay.

One test relates to INS1. The experiment in a line: beta cell apoptosis inhibitors, cytokine rescue, dose response, luminescence, retest (AID 449756).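 Further: cell death triggered by IL-1 beta plus TNF-alpha plus IFN-gamma mixture; protective hits raise ATP signal compared with cytokine alone wells.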 The class given is functional, cell-based. As to conditions: Rattus norvegicus.
Test [1] has as its target T1, Heat shock factor protein 1 (Mus musculus, UniProt P38532).
T1 sequence (P38532 whole entry): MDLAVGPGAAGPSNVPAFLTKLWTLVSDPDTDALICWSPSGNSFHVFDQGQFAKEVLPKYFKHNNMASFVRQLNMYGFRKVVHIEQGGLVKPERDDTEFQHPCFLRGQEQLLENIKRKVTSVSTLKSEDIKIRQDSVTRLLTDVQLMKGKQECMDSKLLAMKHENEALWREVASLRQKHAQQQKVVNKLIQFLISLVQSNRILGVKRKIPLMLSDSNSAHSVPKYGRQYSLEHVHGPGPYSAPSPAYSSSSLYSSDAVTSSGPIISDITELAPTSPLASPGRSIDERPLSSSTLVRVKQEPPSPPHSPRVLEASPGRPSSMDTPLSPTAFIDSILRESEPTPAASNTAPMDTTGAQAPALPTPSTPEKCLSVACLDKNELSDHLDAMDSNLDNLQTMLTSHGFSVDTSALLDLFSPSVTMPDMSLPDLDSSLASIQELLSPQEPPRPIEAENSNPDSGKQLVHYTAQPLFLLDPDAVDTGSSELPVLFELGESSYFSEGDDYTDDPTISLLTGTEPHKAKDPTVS
The experiment in a line: HSF1 potentiators in luciferase reporter cells, confirmation, cell-based, NIH3T3, luminescence, dose retest (AID 435004).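 Further: stress induced by proteasome inhibitor MG132 added 30 min after compound; luciferase reporter driven by HSF1 response element in NIH3T3 cells; actives raise luminescence as potentiators of the MG132 stress response.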 It counts as functional.

The target in another test is X-box-binding protein 1 (Homo sapiens, UniProt P17861). The class given is functional, Cricetulus griseus.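 Further: confirmatory dose-response counter-screen serving a CHOP assay.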
X-box-binding protein 1, sequence (P17861 whole entry): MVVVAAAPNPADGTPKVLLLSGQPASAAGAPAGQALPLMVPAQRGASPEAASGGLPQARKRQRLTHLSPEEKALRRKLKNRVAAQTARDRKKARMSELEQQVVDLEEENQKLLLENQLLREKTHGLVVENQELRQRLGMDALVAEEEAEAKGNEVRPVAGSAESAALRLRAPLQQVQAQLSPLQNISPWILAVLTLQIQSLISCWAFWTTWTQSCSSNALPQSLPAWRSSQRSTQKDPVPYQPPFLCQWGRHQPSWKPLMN
The target in the next test is Paired box protein Pax-8 (Homo sapiens, UniProt Q06710). The experiment in a line: inhibitors of PAX8-driven TPO luciferase reporter, dose response, RMG-I cells, cherry-pick (AID 687027).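 Further: luciferase reporter driven by Pax8 target thyroperoxidase promoter measured by SteadyGlo luminescence.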 It counts as functional, cell-based.
Paired box protein Pax-8, sequence (Q06710 whole entry): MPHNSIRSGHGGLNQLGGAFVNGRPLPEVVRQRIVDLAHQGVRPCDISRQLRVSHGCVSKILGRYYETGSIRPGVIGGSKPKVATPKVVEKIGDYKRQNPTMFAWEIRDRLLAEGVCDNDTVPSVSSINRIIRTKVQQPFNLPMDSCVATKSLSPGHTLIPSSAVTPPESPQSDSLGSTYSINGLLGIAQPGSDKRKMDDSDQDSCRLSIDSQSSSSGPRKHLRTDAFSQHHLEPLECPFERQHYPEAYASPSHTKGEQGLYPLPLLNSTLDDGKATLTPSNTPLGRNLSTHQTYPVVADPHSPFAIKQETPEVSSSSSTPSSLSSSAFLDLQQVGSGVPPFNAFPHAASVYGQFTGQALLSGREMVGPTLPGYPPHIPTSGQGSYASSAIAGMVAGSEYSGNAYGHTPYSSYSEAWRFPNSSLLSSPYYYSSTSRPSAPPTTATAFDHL
The target in another test is Phosphomannomutase 2 (Homo sapiens, UniProt O15305). The experiment in a line: Counter screen SAR assay for PMM2 inhibitors via a fluorescence intensity assay. [Related pubchem assays (depositor defined):AID1545, AID1574].
Phosphomannomutase 2, sequence (O15305 whole entry): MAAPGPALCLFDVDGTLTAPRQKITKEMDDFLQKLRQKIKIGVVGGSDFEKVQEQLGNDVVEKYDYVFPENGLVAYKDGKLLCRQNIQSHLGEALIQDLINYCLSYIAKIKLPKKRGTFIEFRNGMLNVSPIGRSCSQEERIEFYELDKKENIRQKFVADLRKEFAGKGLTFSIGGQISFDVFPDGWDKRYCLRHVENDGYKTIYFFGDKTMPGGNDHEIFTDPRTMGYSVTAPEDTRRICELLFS
For another test, the target named is Hexokinase-1 (Homo sapiens, UniProt P19367). The experiment in a line: hexokinase 1 activators, dose response, selectivity assay for HKDC1 activator project, biochemical (AID 504762). It counts as functional.
Hexokinase-1, sequence (P19367 whole entry): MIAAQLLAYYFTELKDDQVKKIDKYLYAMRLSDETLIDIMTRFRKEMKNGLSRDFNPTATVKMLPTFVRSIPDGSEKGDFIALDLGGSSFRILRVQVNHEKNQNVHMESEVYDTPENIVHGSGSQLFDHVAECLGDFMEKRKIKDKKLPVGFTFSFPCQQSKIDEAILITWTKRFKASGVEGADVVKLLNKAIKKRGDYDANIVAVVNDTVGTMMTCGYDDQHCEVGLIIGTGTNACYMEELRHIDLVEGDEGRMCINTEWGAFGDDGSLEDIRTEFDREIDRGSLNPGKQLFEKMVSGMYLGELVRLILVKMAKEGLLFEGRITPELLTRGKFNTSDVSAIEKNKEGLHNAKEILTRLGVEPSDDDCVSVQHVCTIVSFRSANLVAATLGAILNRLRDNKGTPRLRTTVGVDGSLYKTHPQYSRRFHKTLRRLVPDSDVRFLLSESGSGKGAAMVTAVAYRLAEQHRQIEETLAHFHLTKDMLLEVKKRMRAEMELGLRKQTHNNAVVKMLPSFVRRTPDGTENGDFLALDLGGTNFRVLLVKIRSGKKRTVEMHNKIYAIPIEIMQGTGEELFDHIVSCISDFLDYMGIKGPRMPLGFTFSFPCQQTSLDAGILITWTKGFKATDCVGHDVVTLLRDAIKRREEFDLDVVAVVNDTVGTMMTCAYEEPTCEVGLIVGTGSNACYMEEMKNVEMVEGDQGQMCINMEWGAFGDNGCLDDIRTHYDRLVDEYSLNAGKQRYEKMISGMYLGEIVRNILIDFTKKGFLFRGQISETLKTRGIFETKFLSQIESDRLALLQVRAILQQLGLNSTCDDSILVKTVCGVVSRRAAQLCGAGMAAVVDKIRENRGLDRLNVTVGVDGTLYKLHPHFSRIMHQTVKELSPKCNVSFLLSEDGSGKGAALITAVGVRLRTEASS
In another test the target is Nonstructural protein 1 (Influenza A virus, UniProt Q194T2). It counts as functional, Influenza A virus (A/California/07/2009(H1N1)).
Nonstructural protein 1, sequence (Q194T2 whole entry): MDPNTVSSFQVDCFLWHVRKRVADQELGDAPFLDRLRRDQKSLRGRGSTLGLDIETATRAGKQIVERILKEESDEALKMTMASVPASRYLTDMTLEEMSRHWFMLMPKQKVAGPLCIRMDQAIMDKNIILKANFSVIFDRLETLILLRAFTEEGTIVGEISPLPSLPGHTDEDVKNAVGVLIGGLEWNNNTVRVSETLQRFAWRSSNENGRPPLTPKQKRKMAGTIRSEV
A further test has as its target T2, Hexokinase HKDC1 (Homo sapiens, UniProt Q2TB90).
T2 sequence (Q2TB90 whole entry): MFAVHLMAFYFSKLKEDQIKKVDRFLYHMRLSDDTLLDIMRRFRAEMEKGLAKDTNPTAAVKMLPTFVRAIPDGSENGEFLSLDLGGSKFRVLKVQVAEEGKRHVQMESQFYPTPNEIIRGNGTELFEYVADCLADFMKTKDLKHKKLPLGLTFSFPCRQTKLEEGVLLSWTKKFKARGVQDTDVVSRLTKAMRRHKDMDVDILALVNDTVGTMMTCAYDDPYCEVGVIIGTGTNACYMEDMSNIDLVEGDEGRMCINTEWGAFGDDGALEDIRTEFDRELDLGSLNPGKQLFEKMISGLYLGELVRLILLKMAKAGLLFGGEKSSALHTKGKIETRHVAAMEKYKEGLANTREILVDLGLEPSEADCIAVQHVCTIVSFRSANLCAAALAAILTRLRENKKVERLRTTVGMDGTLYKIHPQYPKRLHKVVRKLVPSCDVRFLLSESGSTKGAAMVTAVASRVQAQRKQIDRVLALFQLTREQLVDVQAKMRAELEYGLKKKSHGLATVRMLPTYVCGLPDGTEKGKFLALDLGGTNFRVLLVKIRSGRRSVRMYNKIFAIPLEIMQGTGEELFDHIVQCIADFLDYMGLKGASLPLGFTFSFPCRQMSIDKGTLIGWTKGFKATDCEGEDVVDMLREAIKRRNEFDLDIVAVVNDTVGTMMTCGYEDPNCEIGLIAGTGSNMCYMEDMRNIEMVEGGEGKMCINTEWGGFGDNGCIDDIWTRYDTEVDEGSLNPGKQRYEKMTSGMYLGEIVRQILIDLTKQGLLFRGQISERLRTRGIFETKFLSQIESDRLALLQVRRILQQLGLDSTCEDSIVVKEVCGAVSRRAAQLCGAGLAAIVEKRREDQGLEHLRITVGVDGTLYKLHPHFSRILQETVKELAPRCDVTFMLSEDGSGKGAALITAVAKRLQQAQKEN
The experiment in a line: HKDC1 hexokinase activators, dose response, biochemical, W721R variant (AID 504730). It counts as functional.

The next test addresses Bcl-2-like protein 10 (Homo sapiens, UniProt Q9HD36). The experiment in a line: displacers of TR3 peptide from Bcl-B, primary screen, selectivity assay for Bfl-1 inhibitor project, biochemical, fluorescence polarization, FITC-TR3 peptide (AID 748).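 Further: fluorescence polarization from a fluorescein-labelled TR3 peptide binding purified Bcl-B.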
Test [2] has as its target T3, Short transient receptor potential channel 4 (Mus musculus, UniProt Q9QUQ5).
T3 sequence (Q9QUQ5 whole entry): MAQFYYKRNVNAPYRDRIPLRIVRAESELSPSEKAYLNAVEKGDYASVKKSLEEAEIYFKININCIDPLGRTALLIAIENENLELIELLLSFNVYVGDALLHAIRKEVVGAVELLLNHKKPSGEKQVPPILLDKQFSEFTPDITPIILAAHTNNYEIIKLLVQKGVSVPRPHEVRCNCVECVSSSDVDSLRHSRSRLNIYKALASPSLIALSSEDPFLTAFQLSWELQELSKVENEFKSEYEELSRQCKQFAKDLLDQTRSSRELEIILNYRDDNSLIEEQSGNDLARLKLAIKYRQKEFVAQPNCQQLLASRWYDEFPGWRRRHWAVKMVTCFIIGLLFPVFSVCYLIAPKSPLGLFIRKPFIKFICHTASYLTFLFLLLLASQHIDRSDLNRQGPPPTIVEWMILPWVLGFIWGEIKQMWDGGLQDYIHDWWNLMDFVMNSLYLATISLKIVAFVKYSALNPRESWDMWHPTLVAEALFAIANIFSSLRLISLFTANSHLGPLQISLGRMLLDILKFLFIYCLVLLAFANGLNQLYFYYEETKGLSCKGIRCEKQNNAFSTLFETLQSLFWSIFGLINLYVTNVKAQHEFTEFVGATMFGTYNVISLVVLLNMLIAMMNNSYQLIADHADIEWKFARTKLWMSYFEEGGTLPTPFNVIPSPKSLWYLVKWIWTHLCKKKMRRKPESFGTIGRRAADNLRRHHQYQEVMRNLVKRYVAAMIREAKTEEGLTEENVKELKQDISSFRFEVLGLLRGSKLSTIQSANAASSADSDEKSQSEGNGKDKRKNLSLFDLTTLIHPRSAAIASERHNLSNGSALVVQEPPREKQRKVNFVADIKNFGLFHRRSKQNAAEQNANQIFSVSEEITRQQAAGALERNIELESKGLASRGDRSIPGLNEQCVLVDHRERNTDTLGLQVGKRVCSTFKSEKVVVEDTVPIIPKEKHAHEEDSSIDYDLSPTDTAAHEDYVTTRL
The experiment in a line: mouse TRPC4 channel inhibitors, dose response, cell-based, HEK293 TRPC4/mu-opioid, Fluo-4 calcium (AID 434942).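 Further: potency of inhibitors blocking the TRPC4 calcium response.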 It counts as functional.

The target of test [3] is T4, Nuclear receptor subfamily 0 group B member 1 (Homo sapiens, UniProt P51843).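 Further: HEK293T cells transfected with SF-1 and DAX-1 plus StAR promoter luciferase reporter.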
T4 sequence (P51843 whole entry): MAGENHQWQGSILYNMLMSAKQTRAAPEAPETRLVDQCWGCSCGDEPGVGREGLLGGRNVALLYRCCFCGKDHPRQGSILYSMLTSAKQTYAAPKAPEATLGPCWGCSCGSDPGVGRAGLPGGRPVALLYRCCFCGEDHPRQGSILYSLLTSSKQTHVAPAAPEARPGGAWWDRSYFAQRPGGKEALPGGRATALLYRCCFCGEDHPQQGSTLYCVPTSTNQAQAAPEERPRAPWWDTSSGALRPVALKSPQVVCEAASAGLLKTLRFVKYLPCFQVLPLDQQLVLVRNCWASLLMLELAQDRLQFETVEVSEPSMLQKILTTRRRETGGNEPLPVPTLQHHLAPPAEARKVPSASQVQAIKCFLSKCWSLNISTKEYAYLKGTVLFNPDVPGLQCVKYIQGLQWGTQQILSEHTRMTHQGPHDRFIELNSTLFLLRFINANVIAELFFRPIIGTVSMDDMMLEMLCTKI
The class given is functional, cell-based.

Test [4] is described as follows: cells. It counts as functional, cell-based.
A short description of test [5]: inhibitors of SNCA 5'UTR-driven reporter translation, confirmation, H4 neuroglioma cells, luminescence (AID 1988). It counts as functional, cell-based.
Test [6] is described as follows: cytotoxicity toward DRD oncogenic fibroblasts, dose response, cell-based, non-viral oncogenic, luminescence (AID 1934). The class given is functional. The settings on record: Homo sapiens.
A short description of test [7]: cells. The class given is functional, cell-based. This is another data set of the same source.
Test [8] relates to BJ. The experiment in a line: cytotoxicity toward BJ-TERT fibroblasts, dose response, cell-based, RAS-independent, luminescence (AID 1933). It counts as functional. The settings on record: Homo sapiens.
Test [9] concerns BJ. The experiment in a line: cytotoxicity toward BJ-TERT-LT-ST fibroblasts, dose response, cell-based, RAS-independent, luminescence (AID 1935).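 Further: BJ fibroblasts immortalized with TERT plus LT and ST oncogenes.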 The class given is functional. As to conditions: Homo sapiens.
Test [10] can be described thus: inhibitors of firefly luciferase expression or activity, dose response, H4 neuroglioma cells, luminescence (AID 1990). It counts as functional, cell-based.
Test [11] is described as follows: cytotoxicity in HEK-293T cells, dose response, cytotoxicity control for TCR NF-kB inhibitor project, luminescence, T-cell screen hits (AID 489026).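 Further: cells exposed to compound about 14 hours before the viability readout.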 The class given is functional, cell-based.
Test [12] can be described thus: inhibitors of SNCA 5'UTR-driven translation, confirmation, luminescence, H4 neuroglioblastoma cells, dose confirmation (AID 2454).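 Further: H4 neuroglioblastoma cells carrying an alpha-synuclein 5'UTR luciferase reporter; potency for inhibition of the luciferase signal.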 It counts as functional, cell-based.
For test [13], the system named is BJ. The experiment in a line: cells. It counts as functional, cell-based. As to conditions: Homo sapiens.
Test [14] is described as follows: luciferase reporter signal reduction – luminescence, H4-C neuroglioblastoma cells, dose response (AID 2458).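 Further: H4 neuroglioblastoma cells stably carrying a luciferase reporter gene fusion.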 It counts as functional, cell-based.
Another test concerns the target Beta-galactosidase (Escherichia coli, UniProt Q8VNN2). It counts as functional.
For the next test, the target named is Mu-type opioid receptor (Homo sapiens, UniProt P35372). The experiment in a line: HTS Image-Based Screen for Agonists of the MOR Receptor. [Related pubchem assays (depositor defined):AID1777, AID1785, AID1786, AID2133]. It counts as functional.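 Further: imaging of beta-arrestin GFP recruitment into spots after receptor activation.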
Mu-type opioid receptor, sequence (P35372 whole entry): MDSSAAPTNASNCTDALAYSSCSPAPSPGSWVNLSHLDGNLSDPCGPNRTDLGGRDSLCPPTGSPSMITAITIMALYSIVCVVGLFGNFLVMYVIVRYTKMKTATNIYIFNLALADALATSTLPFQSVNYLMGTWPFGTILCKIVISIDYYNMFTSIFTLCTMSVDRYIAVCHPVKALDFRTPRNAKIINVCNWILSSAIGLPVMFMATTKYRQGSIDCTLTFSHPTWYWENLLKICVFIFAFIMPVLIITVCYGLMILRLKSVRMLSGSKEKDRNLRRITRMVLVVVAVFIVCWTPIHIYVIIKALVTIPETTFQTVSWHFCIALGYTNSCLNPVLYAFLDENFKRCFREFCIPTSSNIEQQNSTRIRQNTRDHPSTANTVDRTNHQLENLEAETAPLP
For test [15], the target named is T5, Delta-type opioid receptor (Homo sapiens, UniProt P41143). The experiment in a line: HTS Image-Based Screen for Agonists of the DOR Receptor. [Related pubchem assays (depositor defined):AID1777, AID1786, AID2133]. It counts as functional.
T5 sequence (P41143 whole entry): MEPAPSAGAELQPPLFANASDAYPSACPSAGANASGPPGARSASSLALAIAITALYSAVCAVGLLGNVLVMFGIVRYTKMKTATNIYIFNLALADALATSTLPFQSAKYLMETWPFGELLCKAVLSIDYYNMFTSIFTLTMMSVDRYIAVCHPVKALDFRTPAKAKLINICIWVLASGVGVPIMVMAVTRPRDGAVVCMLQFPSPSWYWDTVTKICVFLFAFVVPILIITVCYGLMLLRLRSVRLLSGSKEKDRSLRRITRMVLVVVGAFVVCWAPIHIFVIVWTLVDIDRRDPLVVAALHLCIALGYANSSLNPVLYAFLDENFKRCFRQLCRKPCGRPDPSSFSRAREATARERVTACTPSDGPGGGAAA
Test [16] concerns the target T5, Delta-type opioid receptor. The experiment in a line: HTS Image-Based Screen for Antagonists of the DOR Receptor. [Related pubchem assays (depositor defined):AID1777, AID1785, AID1786, AID2133]. It counts as functional.
The target in test [17] is T6, Kappa-type opioid receptor (Homo sapiens, UniProt P41145). The class given is functional.
T6 sequence (P41145 whole entry): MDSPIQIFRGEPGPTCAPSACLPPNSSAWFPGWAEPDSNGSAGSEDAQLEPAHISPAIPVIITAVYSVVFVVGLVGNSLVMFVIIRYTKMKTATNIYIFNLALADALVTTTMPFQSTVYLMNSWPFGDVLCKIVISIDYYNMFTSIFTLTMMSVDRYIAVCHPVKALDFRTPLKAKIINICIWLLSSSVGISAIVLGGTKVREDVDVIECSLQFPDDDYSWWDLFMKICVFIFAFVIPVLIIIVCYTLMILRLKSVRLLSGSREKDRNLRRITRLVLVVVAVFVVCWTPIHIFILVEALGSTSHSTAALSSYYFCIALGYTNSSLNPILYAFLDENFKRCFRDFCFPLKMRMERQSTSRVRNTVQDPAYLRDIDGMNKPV
Test [18] deals with T6, Kappa-type opioid receptor. It counts as functional. The source holds these as a separate data set.

Bcl-2-like protein 10, sequence (Q9HD36 whole entry): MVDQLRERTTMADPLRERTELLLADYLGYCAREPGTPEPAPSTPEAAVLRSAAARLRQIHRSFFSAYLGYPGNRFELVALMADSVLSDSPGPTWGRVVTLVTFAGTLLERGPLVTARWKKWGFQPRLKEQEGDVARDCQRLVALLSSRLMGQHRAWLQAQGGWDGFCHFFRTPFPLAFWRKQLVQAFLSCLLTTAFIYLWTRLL
Beta-galactosidase, sequence (Q8VNN2 whole entry): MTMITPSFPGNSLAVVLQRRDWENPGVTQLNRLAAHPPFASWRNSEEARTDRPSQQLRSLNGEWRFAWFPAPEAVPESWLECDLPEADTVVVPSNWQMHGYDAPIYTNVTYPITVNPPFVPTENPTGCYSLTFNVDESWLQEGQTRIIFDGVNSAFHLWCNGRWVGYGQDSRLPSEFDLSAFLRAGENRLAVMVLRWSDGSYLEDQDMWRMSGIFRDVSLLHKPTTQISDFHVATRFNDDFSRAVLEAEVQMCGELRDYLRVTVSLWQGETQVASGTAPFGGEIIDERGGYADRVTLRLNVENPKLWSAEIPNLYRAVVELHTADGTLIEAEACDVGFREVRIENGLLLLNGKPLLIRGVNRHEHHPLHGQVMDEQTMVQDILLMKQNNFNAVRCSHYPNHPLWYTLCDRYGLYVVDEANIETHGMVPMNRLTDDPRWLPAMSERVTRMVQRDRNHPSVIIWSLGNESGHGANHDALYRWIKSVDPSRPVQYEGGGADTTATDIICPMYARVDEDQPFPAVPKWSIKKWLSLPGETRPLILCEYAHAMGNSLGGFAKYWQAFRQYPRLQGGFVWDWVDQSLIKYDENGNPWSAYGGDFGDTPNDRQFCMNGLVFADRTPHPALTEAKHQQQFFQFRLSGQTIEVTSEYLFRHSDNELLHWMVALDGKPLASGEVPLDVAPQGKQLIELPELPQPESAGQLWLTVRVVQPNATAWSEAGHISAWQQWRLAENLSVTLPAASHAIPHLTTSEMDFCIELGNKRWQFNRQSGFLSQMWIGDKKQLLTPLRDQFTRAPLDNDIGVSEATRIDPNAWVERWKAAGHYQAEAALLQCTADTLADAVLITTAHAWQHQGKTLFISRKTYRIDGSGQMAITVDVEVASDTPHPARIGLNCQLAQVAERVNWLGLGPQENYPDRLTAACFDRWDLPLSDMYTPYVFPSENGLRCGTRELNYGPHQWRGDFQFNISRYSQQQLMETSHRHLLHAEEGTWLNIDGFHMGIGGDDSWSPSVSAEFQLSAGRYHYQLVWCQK

As for `CSc1nc(-c2ccccc2)nc(C(Cl)Cl)n1`, the AC50 in the test on INS1 was 3.69 µM (active); at Paired box protein Pax-8 it was 2.26 µM (active). Also, the EC50 in test [1] was 2.7 µM (active). Besides, the “Absolute IC50 (XBP1)” value at X-box-binding protein 1 is 10 µM. Moreover, the IC50 at Phosphomannomutase 2 was > 100 µM (inactive).

For the molecule `O=C(NC(=S)NNC(=O)c1cnccn1)c1ccc(F)cc1`, the EC50 is > 80 µM (inactive) on Hexokinase-1 and 14.5 µM (active) at Hexokinase HKDC1. The AC50 with INS1 was 0.889 µM (active). Besides, at Nonstructural protein 1, the IC50 is 2.95 µM (active).

Consider `Cc1c[nH]c2cccc(OCC(O)CNC(C)(C)C)c12` (stereo not drawn), for which the IC50 on Bcl-2-like protein 10 is > 100 µM (inactive).

Turning to `CCc1cccc(OCC(=O)Nc2ccc(C(=O)O)cc2NC(=O)COc2cccc(CC)c2)c1`, in test [2], the EC50 is 11.9 µM (active).

Turning to `COc1ccc(NC(=O)C(=O)NCC2CCCN2S(=O)(=O)c2ccc(C)cc2)cc1` (stereo not drawn), the IC50 was > 67.5 µM (inactive) in [3], > 67.5 µM (inactive) in the test “cells [4]” and > 80 µM (inactive) in [11]. Moreover, the EC50 in test [5] was < 0.1 µM (active); in test [6], 0.484 µM (active); in the test “cells [7]”, 0.06 µM (active); in the test on BJ [8], 0.625 µM (active); in the test with BJ [9], 0.611 µM (active); in [10], < 0.1 µM (active). Besides, the EC50 is 0.047 µM (active) in test [12], 11.7 µM (inconclusive) in the test on BJ [13] and 0.051 µM (active) in test [14]. Moreover, the AC50 on Paired box protein Pax-8 is 0.709 µM (active).

Take `COc1ccc(N2CCN(CCCNC(=O)C(=O)c3c(C)n(C)c4ccccc34)CC2)cc1`: the results for the EC50 (at Beta-galactosidase; on Mu-type opioid receptor; in test [15]) were > 31.5 µM (inactive), > 32 µM (inactive) and > 32 µM (inactive), respectively. Besides, the IC50 is > 32 µM (inactive) in test [16], 18.3 µM (active) in [17] and 6.16 µM in test [18].

With `COc1ccc(-c2nc3c(c(=O)n(C)c(=O)n3C)n2CC2CC(c3ccccc3)=NO2)cc1OC` (stereo not drawn), the EC50 on Hexokinase-1 is 35.1 µM (inactive); at Hexokinase HKDC1, 33.4 µM (inactive).

As to `CCCN1C2=NCCN2c2cc(C)c(C)cc21`, in test [2], the EC50 is 5.96 µM (active).
